Results published in paper PMC3776131 (Bioorganic & medicinal chemistry letters, 2013).
Read-outs that look alike come from different tables or passages of the source. Where a SMILES comes first, the peptide text is derived from it. [ ]: non-standard residue; d: D form. Dmt = Cc1cc(O)cc(C)c1C[C@H](N)C(=O)O; Tic = O=C(O)[C@@H]1Cc2ccccc2CN1

Experiments:
δ receptor [1] = biological target: T1, δ receptor (Mus musculus, UniProt P32300); details: cited from earlier work
μ and κ receptor [2] = details: cited from earlier work
μ opioid receptors [3] = biological target: T2, μ opioid receptors (Rattus norvegicus, UniProt P33535); assay: μ opioid receptor binding, displacement of [3H]DAMGO from rat brain membranes; details: relative to 4a
δ receptor [4] = biological target: T1, δ receptor; assay: mouse vas deferens
μ and κ receptor [5] = assay: guinea pig ileum
[6] = given i.c.v.; cited from earlier work
[7] = cited from earlier work
μ opioid receptors [8] = biological target: T2, μ opioid receptors; details: read-out: Ki^μ; [3H]DAMGO, rat brain membranes; cited from earlier work
κ opioid receptor = κ opioid receptor (Cavia porcellus, UniProt P41144); details: read-out: Ki^κ; [3H]U69,593, guinea pig brain membranes; cited from earlier work
κ opioid receptor, sequence (P41144 whole entry): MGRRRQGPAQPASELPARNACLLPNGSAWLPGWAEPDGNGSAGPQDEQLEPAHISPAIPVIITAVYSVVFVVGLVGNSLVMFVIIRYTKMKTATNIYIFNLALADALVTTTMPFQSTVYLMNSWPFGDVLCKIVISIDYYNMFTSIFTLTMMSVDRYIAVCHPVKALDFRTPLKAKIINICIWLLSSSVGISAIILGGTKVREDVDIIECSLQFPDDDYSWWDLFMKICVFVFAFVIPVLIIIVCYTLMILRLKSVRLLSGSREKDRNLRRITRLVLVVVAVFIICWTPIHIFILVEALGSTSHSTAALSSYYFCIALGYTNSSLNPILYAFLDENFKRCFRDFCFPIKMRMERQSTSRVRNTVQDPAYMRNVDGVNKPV

T1 sequence (P32300 whole entry): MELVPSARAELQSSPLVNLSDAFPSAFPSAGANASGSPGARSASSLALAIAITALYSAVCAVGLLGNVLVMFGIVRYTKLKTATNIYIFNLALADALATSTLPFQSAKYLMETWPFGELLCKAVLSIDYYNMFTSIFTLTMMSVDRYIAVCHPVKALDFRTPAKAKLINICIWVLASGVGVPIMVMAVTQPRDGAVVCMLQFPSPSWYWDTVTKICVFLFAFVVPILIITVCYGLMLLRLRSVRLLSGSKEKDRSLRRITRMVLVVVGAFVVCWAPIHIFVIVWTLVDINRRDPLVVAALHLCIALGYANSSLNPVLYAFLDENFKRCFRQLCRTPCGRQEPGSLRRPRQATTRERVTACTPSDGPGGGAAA
T2 sequence (P33535 whole entry): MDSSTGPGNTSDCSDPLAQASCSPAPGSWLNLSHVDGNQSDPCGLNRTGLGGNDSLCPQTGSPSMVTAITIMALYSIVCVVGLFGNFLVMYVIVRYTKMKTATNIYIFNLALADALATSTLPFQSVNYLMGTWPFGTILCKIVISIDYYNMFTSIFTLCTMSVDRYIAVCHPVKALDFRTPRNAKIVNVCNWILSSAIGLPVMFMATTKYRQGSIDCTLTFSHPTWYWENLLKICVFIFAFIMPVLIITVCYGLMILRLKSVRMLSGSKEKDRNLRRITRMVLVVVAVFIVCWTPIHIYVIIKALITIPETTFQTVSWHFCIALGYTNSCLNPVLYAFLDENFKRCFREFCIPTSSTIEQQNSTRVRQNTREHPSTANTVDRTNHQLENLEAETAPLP

Molecule: H-Y[Tic]FF-OH [Compound 1a]
- type of activity in the MVD assay (δ receptor [1]): potent δ antagonists
- GPI IC50 (agonist potency) (μ and κ receptor [2]): inactive

Molecule: Cc1cc(O)cc(C)c1C[C@H](N)C(=O)N1Cc2ccccc2C[C@H]1C(=O)N[C@@H](CCCCN)C(=O)N[C@@H](Cc1ccccc1)C(N)=O [Compound 6a, H-Dmt-Tic-Lys-Phe-NH2] (HELM PEPTIDE1{[Cc1cc(O)cc(C)c1C[C@H](N)C(=O)[*:2]].[Tic].K.F.[am]}$$$$V2.0)
- fold lower μ receptor affinity than 4a (μ opioid receptors [3]): 16 fold
- Kb (δ receptor [4]): 2.18 ± 0.3 nM
- type of activity in the MVD assay (δ receptor [4]): δ antagonist
- type of activity in the GPI assay (μ and κ receptor [5]): μ agonist

Molecule: H-[Dmt][Tic]FF-NH2 [Compound 4a]
- MVD Ke (δ antagonist activity) (δ receptor [1]): 0.209 ± 0.037 nM

Molecule: H-Tyr-Ticψ[CH2NH]Phe-Phe-OH [Compound 3a]
- type of activity in the MVD assay (δ receptor [1]): potent δ antagonists
- GPI IC50 (agonist potency) (μ and κ receptor [2]): inactive

Molecule: H-[Dmt][Tic]FF-OH [Compound 2a]
- MVD Ke (δ antagonist activity) (δ receptor [1]): 0.196 ± 0.008 nM
- type of activity in the MVD assay (δ receptor [1]): potent δ antagonists
- GPI IC50 (agonist potency) (μ and κ receptor [2]): inactive

Molecule: H-Dmt-Ticψ[CH2NH]Phe-Phe-NH2 [Compound 5a]
- MVD Ke (δ antagonist activity) (δ receptor [1]): 0.537 ± 0.026 nM
- IC50 (μ and κ receptor [2]; read-out: GPI IC50 (agonist potency)): 7.71 ± 0.31 nM
- analgesic effect in the rat tail flick test [6]: potent analgesic effect
- physical dependence upon chronic administration [7]: no physical dependence
- analgesic tolerance upon chronic administration ([7]; compared with morphine): less analgesic tolerance than morphine

Molecule: H-[Dmt]-[Tic]-OH [Compound 8a]
- Ki (μ opioid receptors [8]): 1360 ± 160 nM
- Ki (κ opioid receptor): > 1000 nM
- GPI IC50 (agonist potency) (μ and κ receptor [2]): Inactive
